pKi: −log10 of the molar value.

Chain of Adenosine receptor A2a (P29274 whole entry): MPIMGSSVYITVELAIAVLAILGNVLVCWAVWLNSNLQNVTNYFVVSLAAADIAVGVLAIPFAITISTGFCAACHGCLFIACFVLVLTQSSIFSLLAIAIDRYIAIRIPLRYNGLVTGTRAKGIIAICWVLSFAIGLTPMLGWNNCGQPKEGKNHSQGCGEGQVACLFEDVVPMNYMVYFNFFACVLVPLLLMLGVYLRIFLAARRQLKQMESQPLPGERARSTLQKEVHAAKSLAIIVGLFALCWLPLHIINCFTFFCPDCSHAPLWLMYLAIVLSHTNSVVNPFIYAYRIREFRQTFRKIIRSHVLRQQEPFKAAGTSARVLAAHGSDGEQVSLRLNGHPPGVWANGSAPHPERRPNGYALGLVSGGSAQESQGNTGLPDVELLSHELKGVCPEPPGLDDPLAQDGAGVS

One test concerns the target Adenosine receptor A2a (Homo sapiens, UniProt P29274). In words: Displacement of [3H]ZM-241385 from recombinant human adenosine A2A receptor expressed in HeLa cells at 0.1 uM.
`CCCn1c(=O)c2[nH]c(-c3ccc(OCC(=O)Nc4cc(C)ccn4)cc3)cc2n(CCC)c1=O`: the inhibition is 34%.

For `CCCn1c(=O)c2[nH]c(-c3ccc(N(C=O)CC(=O)Nc4ccccc4)cc3)cc2n(CCC)c1=O`, the inhibition came to 61%.

For `COCCCn1c(=O)c2[nH]c(-c3ccc(OCC(=O)Nc4ccc(Br)cc4)cc3)cc2n(CCCOC)c1=O`, the inhibition came out at 30%.

In the case of `Cn1c(=O)c2[nH]c(-c3ccc(OC(C)(C)C(=O)O)cc3)cc2n(C)c1=O`, the inhibition worked out at 2%.

For `CCCn1c(=O)n(C)c(=O)c2[nH]c(-c3ccc(OCC(=O)NCc4ccccc4)cc3)cc21`, the inhibition was determined as 19%.

Take `CCCn1c(=O)c2[nH]c(-c3ccc(OCC(=O)Nc4ccccc4)cc3OC)cc2n(CCC)c1=O`: the inhibition is 35%.

As for `CC(=O)c1ccc(NC(=O)COc2ccc(-c3cc4c([nH]3)c(=O)n(C)c(=O)n4C)cc2)cc1`, the inhibition stood at 36%.

Turning to `Cn1c(=O)c2[nH]c(-c3ccc(OCC(=O)Nc4cnccn4)cc3)cc2n(C)c1=O`, the inhibition amounted to 20%.

Consider `CCCn1c(=O)c2[nH]c(-c3ccc(OCC(=O)O)cc3Cl)cc2n(CCC)c1=O`, for which the inhibition is 6%.

`CCCn1c(=O)n(C)c(=O)c2[nH]c(-c3ccc(OCC(=O)N(C)Cc4ccccc4)cc3)cc21`: the inhibition came out at 15%.

`CC(C)Cn1c(=O)c2[nH]c(-c3ccc(OCC(=O)Nc4ccccc4)cc3)cc2n(C)c1=O`: the inhibition stood at 2%.

As to `Cn1c(=O)c2[nH]c(-c3ccc(OCC(=O)Nc4ccc(F)cc4)cc3)cc2n(CCN2CCOCC2)c1=O`, the inhibition is 10%.

For `CCCn1c(=O)c2[nH]c(-c3ccc(OCC(=O)Nc4cccnc4)cc3)cc2n(CCC)c1=O`, the inhibition turned out to be 48%.

Take `CCCn1c(=O)c2[nH]c(-c3ccc(OCC(=O)Nc4ccc(Br)cc4)cc3OC)cc2n(CCC)c1=O`: the inhibition was found to be 39%.

For the compound `CC(Oc1ccc(-c2cc3c([nH]2)c(=O)n(C)c(=O)n3C)cc1)C(=O)Nc1ccc(F)cc1` (centres undefined), the inhibition turned out to be 70%.

Consider `CCCn1c(=O)c2[nH]c(-c3ccc(OCC(=O)NCc4ccncc4)cc3)cc2n(C)c1=O`, for which the inhibition was determined as 3%.

For `CCCn1c(=O)c2[nH]c(-c3ccc(OCC(=O)Nc4cnccn4)cc3)cc2n(CCC)c1=O`, the inhibition was 34%.

As to `CCCn1c(=O)c2[nH]c(-c3ccc(OCC(=O)Nc4cc(F)ccc4O)cc3)cc2n(CCC)c1=O`, the inhibition was 73%.

Consider `CCCn1c(=O)c2[nH]c(-c3ccc(OCC(=O)NC(C(=O)OC)c4ccccc4)cc3)cc2n(CCC)c1=O` (centres undefined), for which the inhibition is 39%.

For the compound `COc1cc(OCC(=O)O)ccc1-c1cc2c([nH]1)c(=O)n(C)c(=O)n2C`, the inhibition was determined as 1%.

As to `CCCn1c(=O)c2[nH]c(-c3ccc(OCC(=O)Nc4ccc(C(C)=O)cc4)cc3)cc2n(CCC)c1=O`, the inhibition stood at 15%.

In the case of `COCCCn1c(=O)c2[nH]c(-c3ccc(OCC(=O)O)cc3)cc2n(CCCOC)c1=O`, the inhibition amounted to 9%.

Another test has as its target T1, Adenosine receptor A2b (Homo sapiens) (UniProt P29275).
T1 sequence (whole entry): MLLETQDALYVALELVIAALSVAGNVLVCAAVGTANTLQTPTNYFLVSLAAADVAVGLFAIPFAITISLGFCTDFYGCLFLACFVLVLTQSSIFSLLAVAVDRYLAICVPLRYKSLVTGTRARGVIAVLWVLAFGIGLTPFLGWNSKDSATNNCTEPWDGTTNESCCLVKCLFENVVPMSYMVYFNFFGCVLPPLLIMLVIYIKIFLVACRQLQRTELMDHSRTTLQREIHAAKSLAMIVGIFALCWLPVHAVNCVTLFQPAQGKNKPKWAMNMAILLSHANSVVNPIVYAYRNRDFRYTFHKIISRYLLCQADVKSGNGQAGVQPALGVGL
In words: Displacement of [3H]DPCPX from recombinant human adenosine A2B receptor expressed in HEK293 cells at 0.01 uM. On the technique in general: Loss of bound radioactivity is the signal in a displacement assay; it reports binding, not function.
As for `CCCn1c(=O)c2[nH]c(-c3ccc(OCC(=O)Nc4cc(C)ccn4)cc3)cc2n(CCC)c1=O`, the inhibition was determined as 25%.

With `CCCn1c(=O)c2[nH]c(-c3ccc(N(C=O)CC(=O)Nc4ccccc4)cc3)cc2n(CCC)c1=O`, the inhibition was 10%.

Regarding `COCCCn1c(=O)c2[nH]c(-c3ccc(OCC(=O)Nc4ccc(Br)cc4)cc3)cc2n(CCCOC)c1=O`, the inhibition was 45%.

With `Cn1c(=O)c2[nH]c(-c3ccc(OC(C)(C)C(=O)O)cc3)cc2n(C)c1=O`, the inhibition was determined as 3%.

In the case of `CCCn1c(=O)n(C)c(=O)c2[nH]c(-c3ccc(OCC(=O)NCc4ccccc4)cc3)cc21`, the inhibition amounted to 10%.

`CCCn1c(=O)c2[nH]c(-c3ccc(OCC(=O)Nc4ccccc4)cc3OC)cc2n(CCC)c1=O`: the inhibition was determined as 3%.

On to `CC(=O)c1ccc(NC(=O)COc2ccc(-c3cc4c([nH]3)c(=O)n(C)c(=O)n4C)cc2)cc1`, for which the inhibition is 65%.

`Cn1c(=O)c2[nH]c(-c3ccc(OCC(=O)Nc4cnccn4)cc3)cc2n(C)c1=O`: the inhibition came out at 11%.

In the case of `CCCn1c(=O)c2[nH]c(-c3ccc(OCC(=O)O)cc3Cl)cc2n(CCC)c1=O`, the inhibition came out at 14%.

Regarding `CCCn1c(=O)n(C)c(=O)c2[nH]c(-c3ccc(OCC(=O)N(C)Cc4ccccc4)cc3)cc21`, the inhibition was 15%.

As for `CC(C)Cn1c(=O)c2[nH]c(-c3ccc(OCC(=O)Nc4ccccc4)cc3)cc2n(C)c1=O`, the inhibition was determined as 15%.

Consider `Cn1c(=O)c2[nH]c(-c3ccc(OCC(=O)Nc4ccc(F)cc4)cc3)cc2n(CCN2CCOCC2)c1=O`, for which the inhibition is 16%.

Turning to `CCCn1c(=O)c2[nH]c(-c3ccc(OCC(=O)Nc4cccnc4)cc3)cc2n(CCC)c1=O`, the inhibition came to 19%.

For the compound `CCCn1c(=O)c2[nH]c(-c3ccc(OCC(=O)Nc4ccc(Br)cc4)cc3OC)cc2n(CCC)c1=O`, the inhibition was 18%.

For the compound `CC(Oc1ccc(-c2cc3c([nH]2)c(=O)n(C)c(=O)n3C)cc1)C(=O)Nc1ccc(F)cc1` (centres undefined), the inhibition stood at 76%.

With `CCCn1c(=O)c2[nH]c(-c3ccc(OCC(=O)NCc4ccncc4)cc3)cc2n(C)c1=O`, the inhibition came to 27%.

Consider `CCCn1c(=O)c2[nH]c(-c3ccc(OCC(=O)Nc4cnccn4)cc3)cc2n(CCC)c1=O`, for which the inhibition stood at 10%.

As to `CCCn1c(=O)c2[nH]c(-c3ccc(OCC(=O)Nc4cc(F)ccc4O)cc3)cc2n(CCC)c1=O`, the inhibition came out at 29%.

Take `CCCn1c(=O)c2[nH]c(-c3ccc(OCC(=O)NC(C(=O)OC)c4ccccc4)cc3)cc2n(CCC)c1=O` (centres undefined): the inhibition amounted to 29%.

For the compound `CCCn1c(=O)c2[nH]c(-c3ccc(OCC(=O)Nc4ccc(C(C)=O)cc4)cc3)cc2n(CCC)c1=O`, the inhibition turned out to be 24%.

Take `COCCCn1c(=O)c2[nH]c(-c3ccc(OCC(=O)O)cc3)cc2n(CCCOC)c1=O`: the inhibition was 10%.

A further test addresses T2, Adenosine receptor A2b (Homo sapiens, UniProt P29275).
T2 sequence (P29275 whole entry): T1 sequence (whole entry)
Experiment: not given
As to `CC(=O)c1ccc(NC(=O)COc2ccc(-c3cc4c([nH]3)c(=O)n(C)c(=O)n4C)cc2)cc1`, the negative-log Ki (pKi) is 8.45.

The compound `CC(Oc1ccc(-c2cc3c([nH]2)c(=O)n(C)c(=O)n3C)cc1)C(=O)Nc1ccc(F)cc1` (centres undefined) had a negative-log Ki (pKi) of 8.41. The pKi values of the last two compounds are within 0.2 log units of each other.

In the case of `COc1cc(OCC(=O)O)ccc1-c1cc2c([nH]1)c(=O)n(C)c(=O)n2C`, the negative logarithm of the Ki (pKi) is 5.81.

For the compound `CCCn1c(=O)c2[nH]c(-c3ccc(OCC(=O)Nc4ccc(C(C)=O)cc4)cc3)cc2n(CCC)c1=O`, the pKi was 7.70.

The target of the next test is T1, Adenosine receptor A2b (Homo sapiens). In words: Displacement of [3H]DPCPX from recombinant human adenosine A2B receptor expressed in HEK293 cells at 0.1 uM. Type of test: cell-based.
As to `CCCn1c(=O)c2[nH]c(-c3ccc(OCC(=O)Nc4cc(C)ccn4)cc3)cc2n(CCC)c1=O`, the inhibition is 60%.

For the compound `CCCn1c(=O)c2[nH]c(-c3ccc(N(C=O)CC(=O)Nc4ccccc4)cc3)cc2n(CCC)c1=O`, the inhibition turned out to be 46%.

As to `COCCCn1c(=O)c2[nH]c(-c3ccc(OCC(=O)Nc4ccc(Br)cc4)cc3)cc2n(CCCOC)c1=O`, the inhibition worked out at 85%.

`Cn1c(=O)c2[nH]c(-c3ccc(OC(C)(C)C(=O)O)cc3)cc2n(C)c1=O`: the inhibition came out at 14%.

For the compound `CCCn1c(=O)n(C)c(=O)c2[nH]c(-c3ccc(OCC(=O)NCc4ccccc4)cc3)cc21`, the inhibition came out at 21%.

Consider `CCCn1c(=O)c2[nH]c(-c3ccc(OCC(=O)Nc4ccccc4)cc3OC)cc2n(CCC)c1=O`, for which the inhibition was determined as 17%.

With `CC(=O)c1ccc(NC(=O)COc2ccc(-c3cc4c([nH]3)c(=O)n(C)c(=O)n4C)cc2)cc1`, the inhibition turned out to be 91%.

Take `Cn1c(=O)c2[nH]c(-c3ccc(OCC(=O)Nc4cnccn4)cc3)cc2n(C)c1=O`: the inhibition was determined as 44%.

Consider `CCCn1c(=O)c2[nH]c(-c3ccc(OCC(=O)O)cc3Cl)cc2n(CCC)c1=O`, for which the inhibition was found to be 10%.

On to `CCCn1c(=O)n(C)c(=O)c2[nH]c(-c3ccc(OCC(=O)N(C)Cc4ccccc4)cc3)cc21`, for which the inhibition amounted to 32%.

On to `CC(C)Cn1c(=O)c2[nH]c(-c3ccc(OCC(=O)Nc4ccccc4)cc3)cc2n(C)c1=O`, for which the inhibition was found to be 57%.

`Cn1c(=O)c2[nH]c(-c3ccc(OCC(=O)Nc4ccc(F)cc4)cc3)cc2n(CCN2CCOCC2)c1=O`: the inhibition worked out at 27%.

Take `CCCn1c(=O)c2[nH]c(-c3ccc(OCC(=O)Nc4cccnc4)cc3)cc2n(CCC)c1=O`: the inhibition stood at 83%.

Consider `CCCn1c(=O)c2[nH]c(-c3ccc(OCC(=O)Nc4ccc(Br)cc4)cc3OC)cc2n(CCC)c1=O`, for which the inhibition was found to be 64%.

Regarding `CC(Oc1ccc(-c2cc3c([nH]2)c(=O)n(C)c(=O)n3C)cc1)C(=O)Nc1ccc(F)cc1` (centres undefined), the inhibition amounted to 99%.

For `CCCn1c(=O)c2[nH]c(-c3ccc(OCC(=O)NCc4ccncc4)cc3)cc2n(C)c1=O`, the inhibition is 49%.

For `CCCn1c(=O)c2[nH]c(-c3ccc(OCC(=O)Nc4cnccn4)cc3)cc2n(CCC)c1=O`, the inhibition stood at 68%.

In the case of `CCCn1c(=O)c2[nH]c(-c3ccc(OCC(=O)Nc4cc(F)ccc4O)cc3)cc2n(CCC)c1=O`, the inhibition was 89%.

Regarding `CCCn1c(=O)c2[nH]c(-c3ccc(OCC(=O)NC(C(=O)OC)c4ccccc4)cc3)cc2n(CCC)c1=O` (centres undefined), the inhibition was found to be 58%.

For the compound `COc1cc(OCC(=O)O)ccc1-c1cc2c([nH]1)c(=O)n(C)c(=O)n2C`, the inhibition was 3%.

With `CCCn1c(=O)c2[nH]c(-c3ccc(OCC(=O)Nc4ccc(C(C)=O)cc4)cc3)cc2n(CCC)c1=O`, the inhibition came to 62%.

Take `COCCCn1c(=O)c2[nH]c(-c3ccc(OCC(=O)O)cc3)cc2n(CCCOC)c1=O`: the inhibition amounted to 12%.

As a reminder, the inhibition is how much of the control response was suppressed. In general, pKi refers to −log10 of the Ki, conventionally taken in molar units.

The values are drawn from ChEMBL document CHEMBL1148617, “Design, synthesis, and structure-activity relationships of 1-,3-,8-, and 9-substituted-9-deazaxanthines at the human A2B adenosine receptor” (J Med Chem, 2006).
